Reference: US9938262B2, “Benzamides” (Merck Patent GmbH, priority 2011, dated 2018)

Assays:
[1] = biological target: T1, follicle-stimulating hormone (FSH) receptor (Rattus norvegicus, UniProt P20395); experiment: Rat granulosa EC50 FSH (Assay B); assay type: cell-based; conditions: rat granulosa cells, Table 2
T1 construct: endogenous in cells; host or cells: rat granulosa cells
T1 sequence (P20395 18-692): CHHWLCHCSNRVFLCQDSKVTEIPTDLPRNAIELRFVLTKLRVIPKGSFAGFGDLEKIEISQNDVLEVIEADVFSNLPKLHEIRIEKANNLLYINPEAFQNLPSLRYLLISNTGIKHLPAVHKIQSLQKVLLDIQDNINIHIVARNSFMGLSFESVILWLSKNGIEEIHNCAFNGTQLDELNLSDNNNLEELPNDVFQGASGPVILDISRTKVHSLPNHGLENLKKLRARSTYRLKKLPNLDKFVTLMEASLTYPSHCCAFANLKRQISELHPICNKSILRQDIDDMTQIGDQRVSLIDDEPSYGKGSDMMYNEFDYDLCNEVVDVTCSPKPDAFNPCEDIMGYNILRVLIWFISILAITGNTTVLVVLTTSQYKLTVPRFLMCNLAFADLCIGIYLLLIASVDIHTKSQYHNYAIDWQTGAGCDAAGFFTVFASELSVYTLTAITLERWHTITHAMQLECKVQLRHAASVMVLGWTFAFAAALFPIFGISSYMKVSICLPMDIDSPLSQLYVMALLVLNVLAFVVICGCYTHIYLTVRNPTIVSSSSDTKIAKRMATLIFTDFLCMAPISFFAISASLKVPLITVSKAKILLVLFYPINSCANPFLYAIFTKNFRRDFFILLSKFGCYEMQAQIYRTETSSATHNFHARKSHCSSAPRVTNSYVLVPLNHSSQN
Method: Example 11: Rat Granulosa EC50 FSH (Assay B)
The assay was performed pursuant to the teaching of Yanofsky et al. (2006) Allosteric activation of the follicle-stimulating hormone (FSH) receptor by selective, nonpeptide agonists. JBC 281(19): 13226-13233, which is incorporated by reference in the disclosure of the invention.

FSHR = biological target: T2, FSHR (Homo sapiens, UniProt P23945); experiment: EC50 of cyclic AMP production in CHO FSHR cells + EC20 FSH (Assay A); assay type: cell-based; conditions: CHO FSHR cells + EC20 FSH; Table 2; read-out: Assay A EC50 of cyclic AMP production
T2 construct: expressed in transfected cells; host or cells: CHO (Cho-FSHR-LUC-1-1-43)
T2 sequence (P23945 18-695): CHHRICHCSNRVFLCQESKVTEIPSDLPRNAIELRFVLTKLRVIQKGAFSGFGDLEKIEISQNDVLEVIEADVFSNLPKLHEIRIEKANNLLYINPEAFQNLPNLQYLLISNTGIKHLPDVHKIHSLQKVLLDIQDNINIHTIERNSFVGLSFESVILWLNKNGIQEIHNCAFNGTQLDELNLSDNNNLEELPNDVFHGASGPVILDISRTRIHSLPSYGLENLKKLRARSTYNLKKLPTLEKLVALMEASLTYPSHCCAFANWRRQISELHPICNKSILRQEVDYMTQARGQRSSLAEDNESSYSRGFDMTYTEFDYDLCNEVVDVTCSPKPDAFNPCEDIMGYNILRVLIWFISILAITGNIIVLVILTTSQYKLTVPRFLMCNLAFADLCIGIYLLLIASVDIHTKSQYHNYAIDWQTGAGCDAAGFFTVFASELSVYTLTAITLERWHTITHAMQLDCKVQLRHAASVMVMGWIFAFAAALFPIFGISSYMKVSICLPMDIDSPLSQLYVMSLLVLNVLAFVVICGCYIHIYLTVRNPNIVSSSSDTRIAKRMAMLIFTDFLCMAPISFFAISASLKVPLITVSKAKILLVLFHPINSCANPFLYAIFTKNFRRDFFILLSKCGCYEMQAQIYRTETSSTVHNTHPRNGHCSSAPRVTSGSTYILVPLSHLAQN
T2 sequence (P01215 25-116 partner): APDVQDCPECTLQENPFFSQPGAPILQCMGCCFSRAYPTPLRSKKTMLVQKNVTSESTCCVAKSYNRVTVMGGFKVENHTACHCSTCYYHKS
T2 sequence (P01225 19-129 partner): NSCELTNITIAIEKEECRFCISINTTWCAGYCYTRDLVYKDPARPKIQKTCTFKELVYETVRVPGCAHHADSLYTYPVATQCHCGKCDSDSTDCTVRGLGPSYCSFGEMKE
Procedure, shortened: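 cAMP HTRF ratio (665/620 nm) read after 1 h, 37 °C exposure of CHO-FSHR cells to compound in presence of EC20 FSH ([…]) and IBMX 200 μM. Responses given relative to FSH standard maximum; EC50 derived.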

EC50 [1] [nM]	EC50 (FSHR) [nM]	Assay B % at 1.25 μM ([1]; 1.25 μM) [%]	SMILES
100 to 1000	100 to 1000		Cc1ccccc1N1CCN(c2ccc(C(=O)NCc3cccc(CN(C)C)c3)cc2NC(=O)c2ccco2)CC1 [Compound 320]
1000 to 10000	100 to 1000		Cc1ccc(C(=O)Nc2cc(C(=O)NCCCN3CCOC3=O)ccc2N2CCN(c3ccccc3C)CC2)o1 [Compound 322]
100 to 1000	1000 to 10000		Cc1ccccc1N1CCN(c2ccc(C(=O)NCCS(=O)(=O)N3CCCC3)cc2NC(=O)c2coc(C3CC3)n2)CC1 [Compound 344]
1000 to 10000	100 to 1000		Cc1ncc(C(=O)Nc2cc(C(=O)NCCCN3CCCC3=O)ccc2N2CCN(c3ccccc3C)CC2)o1 [Compound 349]
< 100	100 to 1000		Cc1ccccc1N1CCN(c2ccc(C(=O)NCCCN3C(=O)[C@H]4C[C@@H]3C(O)C4O)cc2NC(=O)c2coc(C3CC3)n2)CC1 (stereo partly shown) [Compound 365]
100 to 1000	< 100		Cc1ccccc1N1CCN(c2ccc(C(=O)NCCCc3nn[nH]n3)cc2NC(=O)c2coc(C3CC3)n2)CC1 [Compound 392]
	100 to 1000	50	Cc1nc(C)n(CCCNC(=O)c2ccc(N3CCN(c4ccccc4C)CC3)c(NC(=O)c3coc(C4CC4)n3)c2)n1 [Compound 394]
1000 to 10000	100 to 1000		Cc1ccc(CNc2cc(C(=O)NCCCN3CCCC3=O)ccc2N2CCN(c3ccccc3C)CC2)o1 [Compound 410]
100 to 1000	100 to 1000		Cc1ccccc1N1CCN(c2ccc(C(=O)NCCCN3CCCC3=O)cc2NC(=O)c2ccn(C)n2)CC1 [Compound 435]
1000 to 10000	< 100		O=C(NCCCN1CCCC1=O)c1ccc(N2CCN(c3ncccc3Cl)CC2)c(NC(=O)c2coc(C3CC3)n2)c1 [Compound 510]
100 to 1000	100 to 1000		Cc1ccc(C(=O)Nc2cc(C(=O)NCCCN3CCCC3=O)ccc2N2CCN(c3ccccc3C3CC3)CC2)o1 [Compound 523]
> 10000	100 to 1000		Cc1ccccc1N1CCN(c2ccc(C(=O)NCCCN3CCCC3=O)cc2NCc2ccccn2)CC1 [Compound 526]
1000 to 10000	100 to 1000		Cc1ccnc(N2CCN(c3ccc(C(=O)NCCCN4CCCC4=O)cc3NC(=O)c3coc(C4CC4)n3)CC2)c1 [Compound 529]
1000 to 10000	100 to 1000		COc1ccnc(N2CCN(c3ccc(C(=O)NCCCN4CCCC4=O)cc3NC(=O)c3coc(C4CC4)n3)CC2)n1 [Compound 601]
